# Data reported in ChEMBL document CHEMBL4190399, “Spiro[pyrrolidine-3,3'-oxindoles] as 5-HT7 receptor ligands” (Bioorg Med Chem Lett, 2018).
# Experiments:
# [1] = target: 5-hydroxytryptamine receptor 2A (Homo sapiens, UniProt P28223); experiment: Displacement of [3H]-Ketanserin from human 5-HT2A receptor expressed in CHO-K1 cell membranes after 1.5 hrs by microbeta scintillation counting analysis
# [2] = target: 5-hydroxytryptamine receptor 6 (Homo sapiens, UniProt P50406); experiment: Displacement of [3H]-LSD from human 5-HT6 receptor expressed in HEK293 cell membranes after 1 hr at 37 degC by microbeta scintillation counting analysis
# [3] = target: 5-hydroxytryptamine receptor 7 (Homo sapiens, UniProt P34969); experiment: Displacement of [3H]-5-CT from human 5-HT7b receptor expressed in HEK293 cell membranes after 1 hr at 37 degC by microbeta scintillation counting analysis
# Homo sapiens [4] = organism: Homo sapiens; experiment: Selectivity index, ratio of Ki for human 5-HT1A receptor expressed in HEK293 cell membranes to Ki for human 5-HT7b receptor expressed in HEK293 cell membranes; assay type: cell-based
# Homo sapiens [5] = organism: Homo sapiens; experiment: Selectivity index, ratio of Ki for human 5-HT2A receptor expressed in CHO-K1 cell membranes to Ki for human 5-HT7b receptor expressed in HEK293 cell membranes; assay type: cell-based
# [6] = target: T1, 5-hydroxytryptamine receptor 1A (Homo sapiens, UniProt P08908); experiment: Displacement of [3H]-8-OH-DPAT from human 5-HT1A receptor expressed in HEK293 cell membranes after 1 hr by microbeta scintillation counting analysis
# T1 sequence (P08908 whole entry): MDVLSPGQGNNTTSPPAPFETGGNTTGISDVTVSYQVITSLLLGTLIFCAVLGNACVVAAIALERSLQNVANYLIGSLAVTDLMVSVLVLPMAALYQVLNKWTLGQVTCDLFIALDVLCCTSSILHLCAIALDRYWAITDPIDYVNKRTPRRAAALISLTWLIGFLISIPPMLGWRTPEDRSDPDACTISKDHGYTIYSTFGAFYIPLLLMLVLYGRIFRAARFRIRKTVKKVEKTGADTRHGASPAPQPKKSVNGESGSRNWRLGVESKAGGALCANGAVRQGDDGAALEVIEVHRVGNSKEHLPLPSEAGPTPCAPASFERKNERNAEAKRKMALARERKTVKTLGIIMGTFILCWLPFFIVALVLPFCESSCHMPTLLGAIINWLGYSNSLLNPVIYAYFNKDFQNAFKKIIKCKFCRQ
# Homo sapiens [7] = organism: Homo sapiens; experiment: Selectivity index, ratio of Ki for human 5-HT6 receptor expressed in HEK293 cell membranes to Ki for human 5-HT7b receptor expressed in HEK293 cell membranes; assay type: cell-based
# Chain of 5-hydroxytryptamine receptor 7 (P34969 whole entry): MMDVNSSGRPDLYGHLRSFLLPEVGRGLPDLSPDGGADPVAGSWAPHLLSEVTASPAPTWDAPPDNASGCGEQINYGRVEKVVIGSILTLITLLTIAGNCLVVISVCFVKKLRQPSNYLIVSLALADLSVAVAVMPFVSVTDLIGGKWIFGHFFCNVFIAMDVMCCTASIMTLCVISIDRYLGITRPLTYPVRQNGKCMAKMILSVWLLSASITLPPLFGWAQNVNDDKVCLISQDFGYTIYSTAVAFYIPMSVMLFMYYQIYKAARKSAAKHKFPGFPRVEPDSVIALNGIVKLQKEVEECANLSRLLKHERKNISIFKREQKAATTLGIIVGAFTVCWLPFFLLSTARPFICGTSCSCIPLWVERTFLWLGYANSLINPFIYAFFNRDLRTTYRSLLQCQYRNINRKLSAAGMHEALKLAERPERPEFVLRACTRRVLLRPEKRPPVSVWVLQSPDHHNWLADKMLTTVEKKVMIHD
# Chain of 5-hydroxytryptamine receptor 2A (P28223 whole entry): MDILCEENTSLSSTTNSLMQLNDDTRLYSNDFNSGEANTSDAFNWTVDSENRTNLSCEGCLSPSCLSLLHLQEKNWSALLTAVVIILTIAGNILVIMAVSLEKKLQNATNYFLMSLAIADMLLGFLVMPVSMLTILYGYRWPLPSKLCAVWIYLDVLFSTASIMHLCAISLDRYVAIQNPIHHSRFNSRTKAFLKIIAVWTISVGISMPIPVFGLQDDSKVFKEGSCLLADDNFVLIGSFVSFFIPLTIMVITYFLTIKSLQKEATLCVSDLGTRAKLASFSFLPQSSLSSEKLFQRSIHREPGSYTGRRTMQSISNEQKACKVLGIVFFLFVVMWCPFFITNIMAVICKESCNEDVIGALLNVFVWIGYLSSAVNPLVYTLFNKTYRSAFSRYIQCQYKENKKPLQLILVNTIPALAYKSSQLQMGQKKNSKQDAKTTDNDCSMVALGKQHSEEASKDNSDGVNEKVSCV
# Chain of 5-hydroxytryptamine receptor 6 (P50406 whole entry): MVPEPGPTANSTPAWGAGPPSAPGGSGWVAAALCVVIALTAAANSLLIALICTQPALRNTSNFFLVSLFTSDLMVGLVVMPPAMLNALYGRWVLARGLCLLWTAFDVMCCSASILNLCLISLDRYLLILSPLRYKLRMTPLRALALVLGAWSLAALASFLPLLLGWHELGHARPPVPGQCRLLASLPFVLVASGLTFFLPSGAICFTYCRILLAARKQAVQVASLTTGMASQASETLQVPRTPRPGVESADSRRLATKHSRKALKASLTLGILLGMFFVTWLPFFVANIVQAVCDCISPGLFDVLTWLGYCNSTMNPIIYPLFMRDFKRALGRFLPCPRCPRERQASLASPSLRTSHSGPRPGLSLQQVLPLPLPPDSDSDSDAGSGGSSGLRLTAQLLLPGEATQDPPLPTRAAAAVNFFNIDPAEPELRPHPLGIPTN
Structure (SMILES),Ki [1],Ki [2],Ki [3],Ki [6],Ratio Ki (Homo sapiens [4]),Ratio Ki (Homo sapiens [5]),Ratio Ki (Homo sapiens [7])
O=C1Nc2ccccc2C12CCN(CCN1CCN(c3ccccc3)CC1)C2 (centres undefined),0.496 µM,6.56 µM,0.1 µM,6 µM,60.1,5,65.6
O=C1Nc2ccccc2C12CCN(CCCN1CCN(c3ccc(Cl)cc3)CC1)C2 (centres undefined),0.715 µM,5.56 µM,0.067 µM,2.89 µM,43.1,10.7,83
O=C1Nc2ccccc2C12CCN(CCN1CCN(c3ccccc3Cl)CC1)C2 (centres undefined),0.452 µM,2.84 µM,0.245 µM,1.1 µM,4.5,1.8,11.6
O=C1Nc2ccccc2C12CCN(CCN1CC=C(c3ccc(F)cc3)CC1)C2 (centres undefined),0.075 µM,6.27 µM,0.043 µM,3.95 µM,91.8,1.7,146
O=C(c1ccc(Cl)cc1)N1CCN(CCN2CCC3(C2)C(=O)Nc2ccccc23)CC1 (centres undefined),17.3 µM,7.75 µM,0.529 µM,48.2 µM,91.2,32.8,14.6

# Further lines, with some results ahead:
Ki [1],Ki [2],Ki [3],Ki [6],Structure (SMILES),Ratio Ki (Homo sapiens [4]),Ratio Ki (Homo sapiens [5]),Ratio Ki (Homo sapiens [7])
0.259 µM,5.28 µM,0.275 µM,52 µM,O=C1Nc2ccccc2C12CCN(CCN1CCC(c3ccc(F)cc3)CC1)C2 (centres undefined),189,0.9,19.2
0.27 µM,1.13 µM,0.038 µM,4.05 µM,O=C1Nc2ccccc2C12CCN(CCN1CCN(c3ccc(Cl)c(Cl)c3)CC1)C2 (centres undefined),107,7.1,29.8
0.404 µM,4.58 µM,0.284 µM,14.9 µM,O=C1Nc2ccccc2C12CCN(CCN1CCC(c3ccc(Cl)cc3)CC1)C2 (centres undefined),52.5,1.4,16.1
0.343 µM,1.69 µM,0.121 µM,13.8 µM,O=C1Nc2ccccc2C12CCN(CCN1CCC(Oc3ccc(Cl)cc3)CC1)C2 (centres undefined),114,2.8,14
0.068 µM,4.74 µM,0.029 µM,3.76 µM,O=C1Nc2ccccc2C12CCN(CCN1CCN(c3ccc(Cl)cc3)CC1)C2 (centres undefined),130,2.3,163
0.059 µM,4.74 µM,0.021 µM,14.2 µM,O=C1Nc2ccccc2C12CCN(CCN1CCN(c3ccc(F)cc3)CC1)C2 (centres undefined),674,2.8,226
0.351 µM,2 µM,0.055 µM,2.69 µM,O=C1Nc2ccccc2C12CCN(CCN1CCN(c3cccc(Cl)c3)CC1)C2 (centres undefined),48.9,6.4,36.5
